Where two headings read alike, the source gives them in different places.
Experiments:
Format in all cases: cell-based
[1] = target: T1, SPL (Mus musculus, UniProt Q8R0X7); assay: Measurement of SPL activity in lysate of cells treated with compound
T1 construct: IT-79MTNC3 cells which are a mouse thymic epithelial cell line can be appropriately selected using the expression of an SPL protein as an index; host or cells: IT-79MTNC3 (mouse thymic epithelial cell line)
T1 sequence (Q8R0X7 1-568): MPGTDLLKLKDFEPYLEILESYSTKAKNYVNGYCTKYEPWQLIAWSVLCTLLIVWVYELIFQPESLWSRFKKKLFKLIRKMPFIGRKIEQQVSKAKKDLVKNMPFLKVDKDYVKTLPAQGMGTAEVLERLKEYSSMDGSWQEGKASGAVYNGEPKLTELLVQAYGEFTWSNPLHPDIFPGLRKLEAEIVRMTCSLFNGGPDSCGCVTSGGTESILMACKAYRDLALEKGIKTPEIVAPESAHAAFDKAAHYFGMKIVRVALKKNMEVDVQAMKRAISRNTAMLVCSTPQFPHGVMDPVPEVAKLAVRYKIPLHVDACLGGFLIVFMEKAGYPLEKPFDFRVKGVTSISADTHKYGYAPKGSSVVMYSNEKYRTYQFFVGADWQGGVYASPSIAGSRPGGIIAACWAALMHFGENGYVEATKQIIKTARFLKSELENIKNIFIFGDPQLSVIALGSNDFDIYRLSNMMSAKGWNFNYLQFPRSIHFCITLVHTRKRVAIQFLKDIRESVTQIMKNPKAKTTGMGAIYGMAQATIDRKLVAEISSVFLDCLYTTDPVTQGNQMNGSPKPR
Protocol: In order to prepare a lysate of cells treated with a test compound, IT-79MTNC3 cells were suspended in DMEM-10% FBS containing 25 μM fumonisin B1 and seeded in a 12-well plate for cell culture at 1×10^5 cells/well, and then cultured at 37° C. in the presence of 5% CO2 for a whole day and night. On the next day, the culture supernatant was first removed, and then, 500 μL of DMEM-0.1% BSA (or VB6-free DMEM-0.1% BSA) containing a serially diluted test compound was added thereto, and the cells were cultured at 37° C. in the presence of 5% CO2 for 4.5 hours. Thereafter, 55 μL of DMEM-0.1% BSA (or VB6-free DMEM-0.1% BSA) containing 10 μM dhSph was added thereto, and the cells were cultured at 37° C. in the presence of 5% CO2 for 30 minutes. After washing the IT-79MTNC3 cells with PBS, the cells were collected. Then, 150 μL of a homogenization buffer was added to the cells, and the resulting mixture was subjected to an ultrasonic treatment using a sonicator, followed by centrifugation at 4° C. for 3 minutes at 1,000 g, and the resulting supernatant was used as a cell lysate. The quantitative determination of protein by the Bradford method was carried out using a portion of the cell lysate. […]
In order to measure the SPL activity in the lysate prepared using the cells treated with the compound, the cell lysate was diluted to 1 mg protein/mL with a homogenization buffer, and the diluted solution was mixed with ^3H-dhS1P (3.4 nM) as a substrate and a reaction buffer (a 0.1 M potassium phosphate solution (pH-7.4), 25 mM NaF, 5 mM Na3VO4, 1 mM EDTA, 1 mM DTT, 0.1% Triton X-100, 2 μM cold dhS1P) to make the final volume 50 μL. […] A 30 μL portion of the resulting organic layer was taken and mixed with 5 mL of the liquid scintillator, and the radioactivity thereof was measured using a liquid scintillation counter. The obtained count was assumed to reflect the amount of degradation products by the SPL reaction, and the SPL activity of each sample was calculated as a ratio of that in the group without treatment with the compound.

[2] = target: T1, SPL; assay: SPA using known SPL inhibitor: accumulation of 3H-dhS1P in IT-79MTNC3 cells; settings: for EC50: read-out: EC50, activity of inhibiting the SPL activity
Protocol: A mouse thymic epithelial cell line (IT-79MTNC3 cells, The Cell Bank Division of Japan Health Sciences Foundation) was cultured using Dulbecco's Modified Eagle Medium (DMEM, Invitrogen) containing 10% fetal bovine serum (FBS) (DMEM-10% FBS) at 37° C. in the presence of 5% CO2. When the cells were used for transfection or assay, the cells were detached with 0.05% trypsin-EDTA (Invitrogen), followed by centrifugation, thereby collecting the cells. When the cells were treated with a compound or used for incorporating ^3H-dhSph, DMEM containing 0.1% bovine serum albumin (BSA, Sigma) (DMEM-0.1% BSA) or vitamin B6 group-depleted Dulbecco's Modified Eagle Medium (VB6-free DMEM, Cell Science & Technology Institute, Inc.) containing 0.1% BSA (VB6-free DMEM-0.1% BSA) was used.
In order to evaluate the activity of a test compound for accumulating ^3H-dhS1P, IT-79MTNC3 cells were suspended in DMEM-10% FBS containing 25 μM fumonisin B1, and seeded in a 96-well plate for cell culture at 1×10^4 cells/well, and then cultured at 37° C. in the presence of 5% CO2 for a whole day and night. On the next day, the culture supernatant was first removed, and then, 40 μL of DMEM-0.1% BSA (or VB6-free DMEM-0.1% BSA) containing a serially diluted test compound was added thereto, and the cells were cultured at 37° C. in the presence of 5% CO2 for 4.5 hours. Thereafter, 10 μL of DMEM-0.1% BSA (or VB6-free DMEM-0.1% BSA) containing 83 nM ^3H-dhSph and 5 μM dhSph was added thereto, and the cells were cultured at 37° C. in the presence of 5% CO2 for 30 minutes. After the culture supernatant was removed, 70 μL of a cell lysis buffer was added thereto, and the resulting mixture was left at room temperature for 2 hours. A 50 μL portion of the resulting cell lysate was mixed with SPA beads (obtained by being diluted to 8 times such that glycerol was contained at 50% in the final concentration), which were previously dispensed into a white 96-well plate at 20 μL/well. Then, the plate was covered with a transparent plate seal and left overnight at room temperature under shading. On the next day, the radioactivity thereof was measured using a microplate scintillation counter. In the case of using VB6-free DMEM, before the culture medium containing the test compound was added, washing was carried out twice with 150 μL of VB6-free DMEM-0.1% BSA, thereby preventing the carryover of the vitamin B6 group contained in DMEM used when seeding.

[3] = target: T1, SPL; assay: Measurement of intracellular S1P by LC-MS in IT-79MTNC3 cells
Protocol: In order to evaluate the activity of a test compound for accumulating S1P, IT-79MTNC3 cells were suspended in DMEM-10% FBS containing 25 μM fumonisin B1, and seeded in a 24-well plate for cell culture at 5×10^4 cells/well, and then cultured at 37° C. in the presence of 5% CO2 for a whole day and night. On the next day, the culture supernatant was first removed, and then, 450 μL of DMEM-0.1% BSA (or VB6-free DMEM-0.1% BSA) containing a serially diluted test compound was added thereto, and the cells were cultured at 37° C. in the presence of 5% CO2 for 4.5 hours. Thereafter, 50 μL of DMEM-0.1% BSA (or VB6-free DMEM-0.1% BSA) containing 10 μM Sph (Enzo Life Sciences) was added thereto, and the cells were cultured at 37° C. in the presence of 5% CO2 for 30 minutes. After the culture supernatant was removed, the cells were washed with PBS and collected. Then, 150 μL of a mixed solution of acetonitrile and 1 M hydrochloric acid (acetonitrile:hydrochloric acid=4:1) was added to the cells, and the resulting mixture was subjected to an ultrasonic treatment using a sonicator. The amount of S1P was measured by LC-MS by Mitsubishi Chemical Medience Corporation. In the case of using VB6-free DMEM, before the culture medium containing the test compound was added, washing was carried out twice with 600 μL of VB6-free DMEM-0.1% BSA, thereby preventing the carryover of the vitamin B6 group contained in DMEM used when seeding.

[4] = in the presence of 100 nM pyridoxine

Compound | activity on SPL activity in the lysate ([1]; VB6-free DMEM, FIG. 5(3)) | activity in SPA (accumulation of 3H-dhS1P) ([2]; VB6-free DMEM, FIG. 5(1)) | inhibitory activity against the SPL activity ([2]; in the presence 1 μM pyridoxine) | EC50 [2, 4] [µM] | inhibitory activity against the SPL activity ([2]; normal DMEM) | activity on amount of intracellular S1P ([3]; VB6-free DMEM, FIG. 5(2)) | activity on SPL activity in the lysate ([1]; normal conditions (DMEM), FIG. 4(3)) | effective concentration in SPA as compared with normal DMEM ([2]; VB6-free DMEM, FIG. 5(1)) | EC50 ([2]; in the presence of 1 μM pyridoxine) [µM] | EC50 ([2]; normal DMEM (containing about 20 μM pyridoxine)) [µM] | response by SPA (accumulation of 3H-dhS1P) ([2]; normal conditions (DMEM), FIG. 4(1)) | activity on amount of intracellular S1P ([3]; normal conditions (DMEM), FIG. 4(2))
CC(=O)c1nc(C(O)C(O)C(O)CO)c[nH]1 (stereo not drawn) [THI, 2-acetyl-4-tetrahydroxybutylimidazole] | exhibited their activity in substantially the same concentration range | concentration-dependent activity was detected | could not be observed | ~250 | could not be observed | exhibited their activity in substantially the same concentration range | – | – | – | – | – | –
Cc1ncc(CO)c(C)c1O [DOP, 4-deoxypyridoxine] | exhibited their activity in substantially the same concentration range | – | – | 0.027 | – | exhibited their activity in substantially the same concentration range | detected in substantially the same concentration range | significantly decreased | 1.6 | 46 | concentration-dependent response | detected in substantially the same concentration range

From patent publication US9200309B2, “Method for screening for S1P lyase inhibitors using cultured cells” (Daiichi Sankyo Company, Limited, priority 2010, dated 2015)
